# Test results taken from patent US20170181971A1, “Nanoparticle- and Drug-Containing Polymersomes for Medical Applications” (Northeastern University, priority 2014, published 2017).
# Tested on: ampicillin-resistant E. coli
# Test: Bacterial growth curve (OD600 for 24 hours) after treatment
# Assay type: cell-based
# Method: Bacteria transformation. First, an overnight suspension of E. coli cells (strain K-12 HB101; Bio-Rad, Hercules, Calif.) was pelleted by centrifugation and re-suspended in 250 μL of cold 50 mM calcium chloride (Sigma-Aldrich, St. Louis, Mo.) and placed in an ice bath. After 15 minutes on ice, 10 μg of the plasmid DNA was added, and the cells were returned to the ice bath for an additional 15 minutes. The cells were then heat shocked by placing them in a 42° C. water bath for exactly 45 seconds and then rapidly transferring them back to the ice bath for 2 minutes. This solution was then mixed with 750 μL of Lysogeny broth (LB, Sigma-Aldrich, St. Louis, Mo.). Finally, the complete transformed bacteria solution was streaked for inoculation on a LBagar plate containing 100 μg mL−1 of ampicillin and allowed to incubate overnight at 37° C.
# Bacterial interactions. For each experimental trial, a single bacterial colony was selected and grown overnight in LB on a shaking incubator set at 200 rpm and 37° C. […] 100 μL of the bacterial suspension was then combined with varying AgPs treatment concentrations or controls in a 96 well plate. The final treatment volume in each well was brought up to 100 μL using 0.01 M PBS (e.g. 100 μL treatment +0 μL PBS, 90 μL treatment+10 μL PBS, 80 μL treatment+20 μL PBS, etc.). Control treatments were given 100 μL of PBS to keep the media dilution consistent. […]
compound,measurement,setting,value
"CC1(C)S[C@@H]2[C@H](NC(=O)[C@H](N)c3ccccc3)C(=O)N2[C@H]1C(=O)O [free ampicillin, ampicillin]",bacteriostatic action (delay in time to reach exponential growth phase),"10^6 CFU mL^−1, OD600 for 24 hours",no bacteriostatic effect
same,difference in bacterial growth between control treatments (incl. PBS),"ampicillin at 200 μg mL^−1, FIG. 7G",no significant differences
